We go through 2 compounds from EP0235823A2, “Carbapenem antibiotics, a process for preparing them and pharmaceutical compositions containing them” (Bristol-Myers Squibb Company, priority 1986, dated 1987).

Converted amounts (≈) assume the structure as drawn.

Common to all, as to type: cell-based
One test has as its system S.aureus A9537. As to the kind of experiment: In vitro antibacterial activity, MIC by tube dilution. To be noted: Staphylococcus aureus, Nutrient Broth, overnight incubation at 37 deg. C. The text has this:
(§1) C by tube dilution. N-formimidoyl thienamycin was included as a comparison compound.

For the next test, the system named is S.pyogenes A9604. Described as above. The following applies: Streptococcus pyogenes, Nutrient Broth, overnight incubation at 37 deg. C.
Source text: as §1

The test system of a further test is S.pneumoniae A9585. The description is as above. To be noted: Streptococcus pneumoniae, Nutrient Broth, overnight incubation at 37 deg. C.
Source text: as §1

The test system of another test is S.faecalis A20688. The test is described as above. To be noted: Enterococcus faecalis, Nutrient Broth, overnight incubation at 37 deg. C.
Source text: as §1

For test [1], the system named is S.aureus + 50% serum A9537S. As to the kind of experiment: In vitro antibacterial activity, MIC by tube dilution, with 50% serum. To be noted: Staphylococcus aureus, read-out: MIC (mcg/ml).
Source text: as §1

`CC(O)C1C(=O)N2C(C(=O)O)=C(SCCN=CN)CC12` (stereo not shown) [N-Formimidoy Thienamycin, N-formimidoyl thienamycin]: the MIC with S.aureus A9537 was determined as 0.004 µg/mL (≈ 0.0134 µM); against S.pyogenes A9604, 0.002 µg/mL (≈ 0.00668 µM); with S.pneumoniae A9585, 0.002 µg/mL (≈ 0.00668 µM); in the test on S.faecalis A20688, 0.25 µg/mL (≈ 0.835 µM); in test [1], 0.016 µg/mL (≈ 0.0534 µM).

In the case of `C[C@@H](O)[C@H]1C(=O)N2C(C(=O)[O-])=C(SCC[N+]34CCN(CC3)CC4)[C@H](C)[C@H]12` [Ex. 7, (5R,6S) 3-[2-(1,4-diazabicyclo[2.2.2.]octanium-1-yl)ethylthio]-6-(1R-hydroxyethyl)-4R-methy3-7-oxo-1-azabicyclo[3.2.0]hept-2-ene-2-carboxylate], the MIC against S.aureus A9537 was found to be 0.5 µg/mL (≈ 1.31 µM); against S.pyogenes A9604, 0.03 µg/mL (≈ 0.0786 µM); with S.pneumoniae A9585 it was 0.03 µg/mL (≈ 0.0786 µM); against S.faecalis A20688, 2 µg/mL (≈ 5.24 µM); in test [1], 0.13 µg/mL (≈ 0.341 µM).
